Earlier results on 1 compound are cited in patent US20040038863A1, “Medical indication” (priority 2002, published 2004).

For the data set the following is noted: in postmenopausal women; background value used to set the washout period.

For `C=C1C[C@@H]2[C@H](CC[C@]3(C)C(=O)CC[C@@H]23)[C@@]2(C)C=CC(=O)C=C12` [exemestane, 6-methylenandrosta-1,4-diene-3,17-dione], the terminal elimination half-life entry is reported as “approximately 24 hours”.
